Biological target: T1, Full-length, GST-tagged, human CaMKIIδ (Homo sapiens, UniProt Q13557)
T1 construct: Full-Length, Glutathione-S-Transferase(GST)-Tagged, Human CaMKIIδ was purchased from Carna Biosciences; purchased Carna Biosciences 02-111
Test: CaMKIIδ binding assay (TR-FRET with BODIPY-labeled probe ligand)
Outline: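 Compounds were tested as 4-fold, eight-point series for 1 hr at room temperature, and IC50 was obtained by logistic fitting against a 3 μM parent-compound control. Signal came from displacement of a 300 nM BODIPY ligand from 0.5 nM GST-CaMKIIδ, detected via Tb-anti-GST in calmodulin/Ca2+ (pH 7.6).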

[1] = Table 2, activity class for CaMKIIδ
[2] = CaMKIIδ binding assay, activity class per Table 2
[3] = Table 2, CaMKIIδ binding assay, activity given as class A/B/C
[4] = CaMKIIδ binding assay, results of Table 2

T1 sequence (Q13557 1-478 isoform Q13557-12): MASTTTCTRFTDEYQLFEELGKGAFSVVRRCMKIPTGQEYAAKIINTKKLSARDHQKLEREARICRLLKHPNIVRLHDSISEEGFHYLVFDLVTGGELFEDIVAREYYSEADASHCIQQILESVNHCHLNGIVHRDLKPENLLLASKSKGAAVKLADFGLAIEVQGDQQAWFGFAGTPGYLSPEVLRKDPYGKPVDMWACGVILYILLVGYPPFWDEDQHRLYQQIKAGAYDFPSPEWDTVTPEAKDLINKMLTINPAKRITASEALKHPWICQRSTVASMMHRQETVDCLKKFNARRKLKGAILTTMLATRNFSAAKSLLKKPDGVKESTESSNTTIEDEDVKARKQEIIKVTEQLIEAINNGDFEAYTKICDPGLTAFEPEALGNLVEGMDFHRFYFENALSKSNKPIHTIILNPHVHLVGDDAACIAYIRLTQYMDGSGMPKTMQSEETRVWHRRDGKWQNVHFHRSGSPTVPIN

Row | Compound | IC50 [1] | IC50 [3] | further results
1 | C[C@@H](Cn1cnnn1)Oc1cc(-c2cnc(Nc3cn(CC(=O)Nc4ccccc4)nc3C(F)(F)F)nc2)ccc1Cl [Example 617, (S)-2-(4-((5-(3-((1-(1H-tetrazol-1-yl)propan-2-yl)oxy)-4-chlorophenyl)pyrimidin-2-yl)amino)-3-(trifluoromethyl)-1H-pyrazol-1-yl)-N-phenylacetamide] | 10 to 100 nM | – | –
2 | C[C@@H](Cn1cnnn1)Oc1cc(-c2cnc(Nc3cn(C[C@]4(O)CC[C@H](O)CC4)nc3OCC(F)(F)F)nc2)ccc1Cl [Example 906, trans-1-((4-((5-(3-(((S)-1-(1H-tetrazol-1-yl)propan-2-yl)oxy)-4-chlorophenyl)pyrimidin-2-yl)amino)-3-(2,2,2-trifluoroethoxy)-1H-pyrazol-1-yl)methyl)cyclohexane-1,4-diol] | – | – | IC50 [2]: < 10 nM
3 | C[C@@H](Cn1cnnn1)Oc1cc(-c2cnc(Nc3cn(CCNC(=O)OC(C)(C)C)nc3C(F)(F)F)nc2)ccc1Cl [Example 845, tert-butyl (S)-(2-(4-((5-(3-((1-(1H-tetrazol-1-yl)propan-2-yl)oxy)-4-chlorophenyl)pyrimidin-2-yl)amino)-3-(trifluoromethyl)-1H-pyrazol-1-yl)ethyl)carbamate] | – | 10 to 100 nM | –
4 | COC1CCC(N2CCC(n3cc(Nc4ncc(-c5ccc(Cl)c(OC(C)Cn6cnnn6)c5)cn4)c(C(F)(F)F)n3)CC2)CC1 (single isomer, unassigned; more polar) [Example 556, (S)-5-(3-((1-(1H-tetrazol-1-yl)propan-2-yl)oxy)-4-chlorophenyl)-N-(1-(1-(cis or trans-4-methoxycyclohexyl)piperidin-4-yl)-3-(trifluoromethyl)-1H-pyrazol-4-yl)pyrimidin-2-amine, more polar] | – | – | IC50 [4]: < 10 nM
5 | COc1cc(N2CCN(CC3COC3)CC2)ncc1Nc1ncc(-c2ccc(Cl)c(O[C@@H](C)Cn3cnnn3)c2)cn1 [Example 652, (S)-5-(3-((1-(1H-tetrazol-1-yl)propan-2-yl)oxy)-4-chlorophenyl)-N-(4-methoxy-6-(4-(oxetan-3-ylmethyl)piperazin-1-yl)pyridin-3-yl)pyrimidin-2-amine] | 10 to 100 nM | – | –
6 | CCn1cc(Nc2ncc(-c3ccc(Cl)c(O[C@@H](C)Cn4cnnn4)c3)cn2)c(N2CCOCC2)n1 [Example 624, (S)-5-(3-((1-(1H-tetrazol-1-yl)propan-2-yl)oxy)-4-chlorophenyl)-N-(1-ethyl-3-morpholino-1H-pyrazol-4-yl)pyrimidin-2-amine] | ≥ 100 nM | – | –
7 | Cc1ccc(-c2cnc(Nc3cn([C@H]4CC[C@H](N5CCOCC5)CC4)nc3OCC(F)(F)F)nc2)cc1O[C@@H](C)Cn1cnnn1 [Example 811, 5-(3-(((S)-1-(1H-tetrazol-1-yl)propan-2-yl)oxy)-4-methylphenyl)-N-(1-(trans-4-morpholinocyclohexyl)-3-(2,2,2-trifluoroethoxy)-1H-pyrazol-4-yl)pyrimidin-2-amine] | – | < 10 nM | –
8 | C[C@@H](Cn1cnnn1)Oc1cc(-c2cnc(Nc3cn(C4C[C@@H]5CC[C@H]4C5)nc3C(F)(F)F)nc2)ccc1Cl (stereo partly drawn) [Example 717, 5-(3-(((S)-1-(1H-tetrazol-1-yl)propan-2-yl)oxy)-4-chlorophenyl)-N-(1-((1S,4R)-bicyclo[2.2.1]heptan-2-yl)-3-(trifluoromethyl)-1H-pyrazol-4-yl)pyrimidin-2-amine] | ≥ 100 nM | – | –
9 | COc1cc2c(cc1Nc1ncc(-c3ccc(C#N)c(O[C@@H](C)Cn4cnnn4)c3)cn1)C(=O)N(C1CCC1)C2 [Example 442, (S)-2-((1-(1H-tetrazol-1-yl)propan-2-yl)oxy)-4-(2-((2-cyclobutyl-6-methoxy-3-oxoisoindolin-5-yl)amino)pyrimidin-5-yl)benzonitrile] | – | – | IC50 [4]: 10 to 100 nM
10 | CCC(C)n1cc(Nc2ncc(-c3ccc(Cl)c(O[C@@H](C)Cn4cnnn4)c3)cn2)c(C(F)(F)F)n1 (stereo partly drawn) [Example 608, 5-(3-(((S)-1-(1H-tetrazol-1-yl)propan-2-yl)oxy)-4-chlorophenyl)-N-(1-(sec-butyl)-3-(trifluoromethyl)-1H-pyrazol-4-yl)pyrimidin-2-amine] | 10 to 100 nM | – | –
11 | C[C@@H](Cn1cnnn1)Oc1cc(-c2cnc(Nc3cn(C4CCNCC4)nc3C(F)F)nc2)ccc1Cl [Example 771, (S)-5-(3-((1-(1H-tetrazol-1-yl)propan-2-yl)oxy)-4-chlorophenyl)-N-(3-(difluoromethyl)-1-(piperidin-4-yl)-1H-pyrazol-4-yl)pyrimidin-2-amine] | – | < 10 nM | –
12 | C[C@@H](Cn1cnnn1)Oc1cc(-c2cnc(Nc3cn(C4CCSCC4)nc3C(F)(F)F)nc2)ccc1Cl [Example 663, (S)-5-(3-((1-(1H-tetrazol-1-yl)propan-2-yl)oxy)-4-chlorophenyl)-N-(1-(tetrahydro-2H-thiopyran-4-yl)-3-(trifluoromethyl)-1H-pyrazol-4-yl)pyrimidin-2-amine] | 10 to 100 nM | – | –
13 | CCn1cc(Nc2ncc(-c3ccc(Cl)c(O[C@@H](C)Cn4cnnn4)c3)cn2)c(N2CCC2)n1 [Example 668, (S)-5-(3-((1-(1H-tetrazol-1-yl)propan-2-yl)oxy)-4-chlorophenyl)-N-(3-(azetidin-1-yl)-1-ethyl-1H-pyrazol-4-yl)pyrimidin-2-amine] | ≥ 100 nM | – | –
14 | C[C@@H](Cn1cnnn1)Oc1cc(-c2cnc(Nc3cn(C4CNC4)nc3C(F)(F)F)nc2)ccc1Cl [Example 697, (S)-5-(3-((1-(1H-tetrazol-1-yl)propan-2-yl)oxy)-4-chlorophenyl)-N-(1-(azetidin-3-yl)-3-(trifluoromethyl)-1H-pyrazol-4-yl)pyrimidin-2-amine] | < 10 nM | – | –
15 | C[C@@H](Cn1cnnn1)Oc1cc(-c2cnc(Nc3cc(N4CC(CN5CCOCC5)C4)ccc3F)nc2)ccc1C#N [Example 762, (S)-2-((1-(1H-tetrazol-1-yl)propan-2-yl)oxy)-4-(2-((2-fluoro-5-(3-(morpholinomethyl)azetidin-1-yl)phenyl)amino)pyrimidin-5-yl)benzonitrile] | – | < 10 nM | –
16 | COCCn1cc(Nc2ncc(-c3ccc(Cl)c(O[C@@H](C)Cn4cnnn4)c3)cn2)c(C(F)(F)F)n1 [Example 737, (S)-5-(3-((1-(1H-tetrazol-1-yl)propan-2-yl)oxy)-4-chlorophenyl)-N-(1-(2-methoxyethyl)-3-(trifluoromethyl)-1H-pyrazol-4-yl)pyrimidin-2-amine] | – | 10 to 100 nM | –
17 | C[C@@H](Cn1cnnn1)Oc1cc(-c2cnc(Nc3cn([C@H]4CC[C@H](N5CC6(COC6)C5)CC4)nc3OCC(F)F)nc2)ccc1Cl [Example 827, 5-(3-(((S)-1-(1H-tetrazol-1-yl)propan-2-yl)oxy)-4-chlorophenyl)-N-(1-(trans-4-(2-oxa-6-azaspiro[3.3]heptan-6-yl)cyclohexyl)-3-(2,2-difluoroethoxy)-1H-pyrazol-4-yl)pyrimidin-2-amine] | – | < 10 nM | –
18 | C[C@@H](Cn1cnnn1)Oc1cc(-c2cnc(Nc3cn(C(C)(C)C(=O)O)nc3OCC(F)(F)F)nc2)ccc1Cl [Example 889, (S)-2-(4-((5-(3-((1-(1H-tetrazol-1-yl)propan-2-yl)oxy)-4-chlorophenyl)pyrimidin-2-yl)amino)-3-(2,2,2-trifluoroethoxy)-1H-pyrazol-1-yl)-2-methylpropanoic acid] | – | – | IC50 [2]: 10 to 100 nM
19 | Cc1cc(Nc2ncc(-c3ccc(Cl)c(O[C@@H](C)Cn4cnnn4)c3)cn2)n(C(C)C)n1 [Example 742, (S)-5-(3-((1-(1H-tetrazol-1-yl)propan-2-yl)oxy)-4-chlorophenyl)-N-(1-isopropyl-3-methyl-1H-pyrazol-5-yl)pyrimidin-2-amine] | – | 10 to 100 nM | –
20 | CC(Cn1cnnn1)Oc1cc(-c2cnc(Nc3cn(CC4(O)CCC(C)(O)CC4)nc3OCC(F)(F)F)nc2)ccc1Cl [Example 923, trans-1-((4-((5-(3-(((S)-1-(1H-tetrazol-1-yl)propan-2-yl)oxy)-4-chlorophenyl)pyrimidin-2-yl)amino)-3-(2,2,2-trifluoroethoxy)-1H-pyrazol-1-yl)methyl)-4-methylcyclohexane-1,4-diol] | – | – | IC50 [2]: < 10 nM
21 | CC(=O)N1CCC(n2cc(Nc3ncc(-c4ccc(Cl)c(O[C@@H](C)Cn5cnnn5)c4)cn3)c(C(F)(F)F)n2)CC1 [Example 488, (S)-1-(4-(4-((5-(3-((1-(1H-tetrazol-1-yl)propan-2-yl)oxy)-4-chlorophenyl)pyrimidin-2-yl)amino)-3-(trifluoromethyl)-1H-pyrazol-1-yl)piperidin-1-yl)ethan-1-one] | – | – | IC50 [4]: < 10 nM
22 | COc1cc2c(cc1Nc1ncc(-c3ccc(Cl)c(O[C@@H](C)Cn4cnnn4)c3)cn1)CCN(C(=O)CN(C)C)C2 [Example 459, (S)-1-(6-((5-(3-((1-(1H-tetrazol-1-yl)propan-2-yl)oxy)-4-chlorophenyl)pyrimidin-2-yl)amino)-7-methoxy-3,4-dihydroisoquinolin-2(1H)-yl)-2-(dimethylamino)ethan-1-one] | – | – | IC50 [4]: < 10 nM
23 | C#CCn1cc(Nc2ncc(-c3ccc(Cl)c(O[C@@H](C)Cn4cnnn4)c3)cn2)c(C(F)(F)F)n1 [Example 726, (S)-5-(3-((1-(1H-tetrazol-1-yl)propan-2-yl)oxy)-4-chlorophenyl)-N-(1-(prop-2-yn-1-yl)-3-(trifluoromethyl)-1H-pyrazol-4-yl)pyrimidin-2-amine] | 10 to 100 nM | – | –
24 | C[C@@H](Cn1cnnn1)Oc1cc(-c2cnc(Nc3sc4c(c3C#N)CCCC4)nc2)ccc1Cl [Example 752, (S)-2-((5-(3-((1-(1H-tetrazol-1-yl)propan-2-yl)oxy)-4-chlorophenyl)pyrimidin-2-yl)amino)-4,5,6,7-tetrahydrobenzo[b]thiophene-3-carbonitrile] | – | 10 to 100 nM | –
25 | C[C@@H](Cn1cnnn1)Oc1cc(-c2cnc(Nc3cn(CC4(O)CCN(C5CCOCC5)CC4)nc3C(F)(F)F)nc2)ccc1Cl [Example 905, (S)-4-((4-((5-(3-((1-(1H-tetrazol-1-yl)propan-2-yl)oxy)-4-chlorophenyl)pyrimidin-2-yl)amino)-3-(trifluoromethyl)-1H-pyrazol-1-yl)methyl)-1-(tetrahydro-2H-pyran-4-yl)piperidin-4-ol] | – | – | IC50 [2]: < 10 nM

— US10543212B2, “Substituted amines for treating cardiac diseases” (Cardurion Pharmaceuticals, LLC, priority 2017, dated 2020)
